Non-standard residues stand in square brackets, D forms with d. No end group written: not given here. 2Nal = N[C@@H](Cc1ccc2ccccc2c1)C(=O)O; Sar = CNCC(=O)O
Legend:
carboplatin treated mice [1] = experiment: Example 5: two rounds of high-dose carboplatin, hematocrit and survival of mice; type: in vivo, mouse; conditions: between days 4 and 18
Protocol: (§1) The effects of PEGylated TPO Compound No. 1 on mice treated with carboplatin were observed. For all examples herein, a 10 mg/ml stock solution of PEGylated TPO Compound No. 1 was prepared in sterile saline. For mixing, the preparation was placed on a gyratory shaker for 15 mm. at 200 rpm. This method was used to dissolve PEGylated TPO Compound No. 1 without foaming. The stock was filtered using a GV Millex (0.22 μm) filter. Dosing solutions were then prepared from this stock using sterile saline. The stock and dosing solutions were prepared fresh on the day of use.
Groups of mice were treated with two rounds of the chemotherapeutic agent (carboplatin) ten days apart, with each round consisting of two consecutive days of carboplatin (i.e., 70 mg/kg/day administered on Days −1 & 0 and Days 10 & 11) as delineated below. The dose of carboplatin utilized for these survival studies exceeded the maximal tolerated dose for mice (i.e., 120 mg/kg; administered as 60 mg/kg/day on 2 consecutive days). One hour following the second dose of carboplatin in each round (i.e., Day 0 and 11) mice were treated with PEGylated TPO Compound No. 1 (100 μg/kg) or vehicle (sterile saline, SS, preservative-free 0.9% sodium chloride) by IV (bolus) injection as delineated below. The dose was administered on a per weight basis (100 μl/10 g body weight). […]

carboplatin treated mice [2] = experiment: Example 1: increasing doses one day after carboplatin, anemia in mice; type: in vivo, BALB/c mouse
Protocol: as §1
The effect of PEGylated TPO Compound No. 1 on the duration and severity of anemia following treatment of mice with carboplatin as determined by changes in hemoglobin levels, red blood cell count and hematocrit, was observed. For this study, increasing amounts of PEGylated TPO Compound No. 1 were administered to mice one day following a carboplatin dose to characterize a possible dose-dependent effect on various red blood cell parameters.
The groups of mice were treated with either carboplatin or vehicle (Phosphate Buffered Saline, PBS) by intraperitoneal administration on Days −2 and −1 as delineated below. The optimal dose of carboplatin used to induce thrombocytopenia in the BALB/c mouse strain was previously determined to be a fractionated total dose of 120 mg/kg given as two consecutive daily injections (i.e., 2×60 mg/kg). One day following the second dose of carboplatin, groups of mice were treated with PEGylated TPO Compound No. 1 or vehicle (sterile saline, SS, preservative-free 0.90% sodium chloride) by IV (bolus) injection as delineated in Table 1. The dose was administered on a per-weight basis (100 μl/10 g body weight).
On Days 5, 7, 9 and 11, five mice in each test group were weighed and then euthanised using CO2-asphyxiation and exsanguinations via cardiac puncture. The blood samples were transferred to separate EDTA (lavender-top) microcontainers for hematologic evaluation. Groups of control mice (5) were processed on Days 5 and 11. The data are presented graphically as group means +SEM.

[3] = molecular target: T1, human TPO receptor, c-mpl (hTPOr) (Homo sapiens, UniProt P40238); experiment: Example 7: Baf/3 hTPOr fos/lux luciferase reporter assay; type: cell-based
T1 construct: expressed in transfected cells
T1 sequence (P40238 26-635): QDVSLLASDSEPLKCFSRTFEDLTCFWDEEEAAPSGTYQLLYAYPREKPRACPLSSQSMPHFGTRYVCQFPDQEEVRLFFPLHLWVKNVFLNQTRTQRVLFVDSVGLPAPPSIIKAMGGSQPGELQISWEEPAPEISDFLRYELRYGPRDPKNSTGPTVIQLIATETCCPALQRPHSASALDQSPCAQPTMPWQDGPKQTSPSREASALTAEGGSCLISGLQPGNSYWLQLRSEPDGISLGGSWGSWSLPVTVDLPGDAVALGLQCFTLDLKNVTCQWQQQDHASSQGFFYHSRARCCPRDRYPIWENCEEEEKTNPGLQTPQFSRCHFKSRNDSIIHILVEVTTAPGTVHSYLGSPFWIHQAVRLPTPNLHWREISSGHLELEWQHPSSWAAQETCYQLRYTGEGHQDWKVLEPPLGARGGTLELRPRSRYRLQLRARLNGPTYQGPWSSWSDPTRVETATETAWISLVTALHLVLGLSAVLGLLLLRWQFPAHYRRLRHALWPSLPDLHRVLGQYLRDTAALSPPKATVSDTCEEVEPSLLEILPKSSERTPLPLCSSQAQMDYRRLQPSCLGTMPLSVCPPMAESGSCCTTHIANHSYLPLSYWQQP
Text: The activity of the peptide compounds can be determined using standard relative luminescent units assay techniques. The assay employs, e.g., murine cells engineered to stably express the human TPO receptor and a luciferase reporter construct driven by the fos promoter. The assay may be performed as follows: Serum deprived Baf/3 hTPOr fos/lux cells expressing the human TPO receptor, c-mpl (hTPOr), and a luciferase reporter construct are exposed to increasing concentrations of either rhTPO or peptide compound for approximately 18 hours. Cells are then incubated in a medium containing a luciferase substrate and the luminescence of the cells is measured using a luminometer.

## N.N.O=C([O-])C1(C(=O)[O-])CCC1.[Pt+2] [carboplatin, reference compound]
Carboplatin treated mice [1]; carboplatin alone 70 mg/kg/day, 2 rounds
  deaths among mice not utilized for hematological evaluation: 7 mice
Carboplatin treated mice [2]; carboplatin alone 2×60 mg/kg ip, by Day 11
  decrease in hemoglobin levels: ~20%

## Methoxypolyethyleneglycol20000-propionyl-L-Isoleucyl-L-Glutamyl-Glycyl-L-Prolyl-L-Threonyl-L-Leucyl-L-Arginyl-L-Glutaminyl-L-2-Naphthylalanyl-L-Leucyl-L-Alanyl-L-Alanyl-L-Arginyl-Sarcosyl-Ne-(methoxypolyethyleneglycol20000-propionyl-L-Isoleucyl-L-Glutamyl-Glycyl-L-Prolyl-L-Threonyl-L-Leucyl-L-Arginyl-L-Glutaminyl-L-2-Naphthylalanyl-L-Leucyl-L-Alanyl-L-Alanyl-L-Arginyl-Sarcosyl-)-Lysinamide ({methoxypolyethyleneglycol20000‑propionyl}-IEGPTLRQ[2Nal]LAAR[Sar]K[Sar]RAAL[2Nal]QRLTPGEI; also: dimer: positions 16-29 are the second 14-mer written in reverse, its Sar C-terminus joined to the K15 epsilon-amine, K15 is C-terminal lysinamide (NH2), methoxypolyethyleneglycol20000-propionyl also on Ile29 N-terminus) [PEGylated TPO Compound No. 1]
Carboplatin treated mice [1]; combination therapy (carboplatin 70 mg/kg/day, 2 rounds, plus 100 μg/kg iv)
  deaths among mice not utilized for hematological evaluation: 1 mouse
Carboplatin treated mice [2]; 300, 1000, 3000 μg/kg iv one day after carboplatin, no statistical evaluation
  carboplatin-associated decreases in RBC count and hematocrit: inhibited
Carboplatin treated mice [2]; all doses (300, 1000, 3000 μg/kg iv, one day after carboplatin 2×60 mg/kg ip), by Day 11
  carboplatin-induced decrease in hemoglobin levels: inhibited
Carboplatin treated mice [2]; all doses tested, 11-Day study period
  body weight after carboplatin: enhanced the recovery of the lost body weight
Carboplatin treated mice [2]; appeared to be dose-dependent
  altered appearance and behavior (hunched, flaccid, soiled anogenital areas): decreased the onset, frequency and severity of these signs
[3]; at the same concentration as TPO
  activation of TPO-R compared with TPO: stronger activation
[3]; increasing concentrations
  activation of Baf/3 cells recombinantly expressing human TPO-R: dose dependent
